# From PubChem BioAssay AID2060616 (Molecular Pharmacology Branch, DTP, NCI, 2025)
# Several values for one entry are separate records, joined by “and”; a condition that tells them apart may be missing. Identical values can stand only once.
# Tested on: 377384-186-R-J1-PDC complex spheroid viability
# Test: Anticancer human tumor 377384-186-R-J1-PDC patient-derived pancreatic carcinoma cell line growth inhibition [CLK]
# Conditions: for viability, T/C: stronger effect = lower value
# Procedure, shortened: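 Patient-derived tumor cells grown as complex spheroids with HUVEC endothelial cells and mesenchymal stem cells, treated with drug combinations. Concentrations descend in half-log steps from near clinical Cmax, or from 10 microM if Cmax unknown.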
# [1] = curve of first compound, second compound 0.0316 µM
# [2] = curve of first compound, second compound 0.1 µM
# [3] = curve of first compound, second compound 0.316 µM
# [4] = curve of first compound, second compound 1 µM
# [5] = curve of first compound, second compound 3.16 µM
# [6] = curve of first compound, second compound 10 µM
# [7] = second compound 0.0316 µM, first compound 0.0316 µM
# [8] = second compound 0.0316 µM, first compound 0.1 µM
# [9] = second compound 0.0316 µM, first compound 0.316 µM
# [10] = second compound 0.0316 µM, first compound 1 µM
# [11] = second compound 0.0316 µM, first compound 3.16 µM
# [12] = second compound 0.0316 µM, first compound 10 µM
# [13] = second compound 0.1 µM, first compound 0.0316 µM
# [14] = second compound 0.1 µM, first compound 0.1 µM
# [15] = second compound 0.1 µM, first compound 0.316 µM
# [16] = second compound 0.1 µM, first compound 1 µM
# [17] = second compound 0.1 µM, first compound 3.16 µM
# [18] = second compound 0.1 µM, first compound 10 µM
# [19] = second compound 0.316 µM, first compound 0.0316 µM
# [20] = second compound 0.316 µM, first compound 0.1 µM
# [21] = second compound 0.316 µM, first compound 0.316 µM
# [22] = second compound 0.316 µM, first compound 1 µM
# [23] = second compound 0.316 µM, first compound 3.16 µM
# [24] = second compound 0.316 µM, first compound 10 µM
# [25] = second compound 1 µM, first compound 0.0316 µM
# [26] = second compound 1 µM, first compound 0.1 µM
# [27] = second compound 1 µM, first compound 0.316 µM
# [28] = second compound 1 µM, first compound 1 µM
# [29] = second compound 1 µM, first compound 3.16 µM
# [30] = second compound 1 µM, first compound 10 µM
# [31] = second compound 3.16 µM, first compound 0.0316 µM
# [32] = second compound 3.16 µM, first compound 0.1 µM
# [33] = second compound 3.16 µM, first compound 0.316 µM
# [34] = second compound 3.16 µM, first compound 1 µM
# [35] = second compound 3.16 µM, first compound 3.16 µM
# [36] = second compound 3.16 µM, first compound 10 µM
# [37] = second compound 10 µM, first compound 0.0316 µM
# [38] = second compound 10 µM, first compound 0.1 µM
# [39] = second compound 10 µM, first compound 0.316 µM
# [40] = second compound 10 µM, first compound 1 µM
# [41] = second compound 10 µM, first compound 3.16 µM
# [42] = second compound 10 µM, first compound 10 µM
# 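Note: spheroids exposed to agents for 7 days before reading.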
# 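Throughout, for viability, T/C: luminescence signal used as a stand-in for viable cells.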
structure (smiles),measurement,setting,value
CC1(C)CCC(CN2CCN(c3ccc(C(=O)NS(=O)(=O)c4ccc(NCC5CCOCC5)c([N+](=O)[O-])c4)c(Oc4cnc5[nH]ccc5c4)c3)CC2)=C(c2ccc(Cl)cc2)C1 + CNC(=O)c1ccc(Nc2nc(OC3CCCC3)c3c(-c4ccc5nc(C)oc5c4)c[nH]c3n2)c(OC)c1,IC50,[1],> 10 µM
same,IC50,[2],> 10 µM
same,IC50,[3],< 0.0316 µM
same,IC50,[4],< 0.0316 µM
same,IC50,[5],< 0.0316 µM
same,IC50,[6],< 0.0316 µM
same,"viability, T/C",[7],105%
same,"viability, T/C",[8],93.2%
same,"viability, T/C",[9],96.9%
same,"viability, T/C",[10],109%
same,"viability, T/C",[11],82.1%
same,"viability, T/C",[12],104%
same,"viability, T/C",[13],59.8%
same,"viability, T/C",[14],57.4%
same,"viability, T/C",[15],49.3%
same,"viability, T/C",[16],56.6%
same,"viability, T/C",[17],36.4%
same,"viability, T/C",[18],59.8%
same,"viability, T/C",[19],20.4%
same,"viability, T/C",[20],21.6%
same,"viability, T/C",[21],19.7%
same,"viability, T/C",[22],19%
same,"viability, T/C",[23],17.6%
same,"viability, T/C",[24],21.1%
same,"viability, T/C",[25],23.3%
same,"viability, T/C",[26],22.5%
same,"viability, T/C",[27],18.2%
same,"viability, T/C",[28],19.1%
same,"viability, T/C",[29],19.3%
same,"viability, T/C",[30],21.6%
same,"viability, T/C",[31],20.2%
same,"viability, T/C",[32],20.7%
same,"viability, T/C",[33],20%
same,"viability, T/C",[34],18.8%
same,"viability, T/C",[35],21.9%
same,"viability, T/C",[36],20.9%
same,"viability, T/C",[37],20.2%
same,"viability, T/C",[38],21.6%
same,"viability, T/C",[39],21.2%
same,"viability, T/C",[40],20.1%
same,"viability, T/C",[41],19.2%
same,"viability, T/C",[42],21.3%
CC(Nc1ccc2c(c1)OCCn1cc(N3C(=O)OCC3C(F)F)nc1-2)C(N)=O (stereo unspecified) + CNC(=O)c1ccc(Nc2nc(OC3CCCC3)c3c(-c4ccc5nc(C)oc5c4)c[nH]c3n2)c(OC)c1,IC50,[1],0.905 µM
same,IC50,[2],0.221 µM
same,IC50,[3],< 0.0316 µM
same,IC50,[4],< 0.0316 µM
same,IC50,[5],< 0.0316 µM
same,IC50,[6],< 0.0316 µM
same,"viability, T/C",[7],84.8%
same,"viability, T/C",[8],90.6%
same,"viability, T/C",[9],71.2%
same,"viability, T/C",[10],49.1%
same,"viability, T/C",[11],41.6%
same,"viability, T/C",[12],41.2%
same,"viability, T/C",[13],59%
same,"viability, T/C",[14],61.5%
same,"viability, T/C",[15],41.7%
same,"viability, T/C",[16],42.8%
same,"viability, T/C",[17],33.4%
same,"viability, T/C",[18],29%
same,"viability, T/C",[19],21.1%
same,"viability, T/C",[20],20.5%
same,"viability, T/C",[21],18.4%
same,"viability, T/C",[22],15%
same,"viability, T/C",[23],13.5%
same,"viability, T/C",[24],14%
same,"viability, T/C",[25],18.1%
same,"viability, T/C",[26],14.4%
same,"viability, T/C",[27],14.4%
same,"viability, T/C",[28],14.8%
same,"viability, T/C",[29],12.8%
same,"viability, T/C",[30],12.6%
same,"viability, T/C",[31],17.7%
same,"viability, T/C",[32],18.5%
same,"viability, T/C",[33],18%
same,"viability, T/C",[34],14.2%
same,"viability, T/C",[35],13.1%
same,"viability, T/C",[36],11.8%
same,"viability, T/C",[37],16.1%
same,"viability, T/C",[38],17.5%
same,"viability, T/C",[39],14.1%
same,"viability, T/C",[40],15.6%
same,"viability, T/C",[41],13.4%
same,"viability, T/C",[42],11.6%
CCCS(=O)(=O)Nc1ccc(F)c(C(=O)c2c[nH]c3ncc(-c4ccc(Cl)cc4)cc23)c1F,"viability, T/C",compound 0.0316 µM,94.9% and 92.5%
same,"viability, T/C",compound 0.1 µM,86% and 102%
same,"viability, T/C",compound 0.316 µM,120% and 114%
same,"viability, T/C",compound 1 µM,126% and 124%
same,"viability, T/C",compound 3.16 µM,114% and 105%
same,"viability, T/C",compound 10 µM,59.8% and 57.9%
same,IC50,curve of compound,> 10 µM
